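Where inhibition never reached the appropriate level, the endpoint shown equals the highest concentration tested. Otherwise, values were interpolated linearly from a five-concentration, 48-hour dose response in 96-well plates. Abbreviation: GI50, concentration required for 50% inhibition of growth.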 Active and inactive are the calls of the source. Rule as the data show it: active = GI50 up to about 1.1 µM and inactive = higher.
Legend:
Assay in all cases: NCI tumour cell line growth inhibition, 48 h
A498 = system: A498
KM12 = system: KM12
NCI-H522 = system: NCI-H522
786-0 = system: 786-0
HCC 2998 = system: HCC 2998
NCI-H460 = system: NCI-H460
OVCAR-8 = system: OVCAR-8
IGROV-1 = system: IGROV-1
NCI-H226 = system: NCI-H226
MDA-N = system: MDA-N
OVCAR-4 = system: OVCAR-4
SK-MEL-5 = system: SK-MEL-5
A549 = system: A549
Malme-3M = system: Malme-3M
HT-29 = system: HT-29
CAKI-1 = system: CAKI-1
CCRF-CEM = system: CCRF-CEM
Hs-578T = system: Hs-578T
LOX IMVI = system: LOX IMVI
MCF7 = system: MCF7
T47D = system: T47D
SN12C = system: SN12C
PC-3 = system: PC-3
MDA-MB-231 = system: MDA-MB-231
ACHN = system: ACHN
SF-539 = system: SF-539
MOLT-4 = system: MOLT-4
U-251 = system: U-251
HOP-62 = system: HOP-62
SF-295 = system: SF-295
NCI-H23 = system: NCI-H23
NCI/ADR-RES = system: NCI/ADR-RES
RXF 393 = system: RXF 393
UACC-257 = system: UACC-257
SNB-19 = system: SNB-19
TK-10 = system: TK-10
OVCAR-5 = system: OVCAR-5
EKVX = system: EKVX
SR = system: SR
SK-MEL-2 = system: SK-MEL-2
SF-268 = system: SF-268
MDA-MB-435 = system: MDA-MB-435
COLO 205 = system: COLO 205
UACC-62 = system: UACC-62
SNB-75 = system: SNB-75
BT-549 = system: BT-549
OVCAR-3 = system: OVCAR-3
DU-145 = system: DU-145
K562 = system: K562
SK-OV-3 = system: SK-OV-3
HCT-15 = system: HCT-15
HCT-116 = system: HCT-116
HOP-92 = system: HOP-92
UO-31 = system: UO-31
RPMI-8226 = system: RPMI-8226
SW-620 = system: SW-620
SK-MEL-28 = system: SK-MEL-28
HL-60 = system: HL-60
M14 = system: M14

Structure (SMILES): CCOC(=O)/C=C/[C@H](O)[C@@H](O)/C=C/C(=O)OCC
- GI50 (A498): 42.7 µM (inactive)
- GI50 (KM12): 18.9 µM (inactive)
- GI50 (NCI-H522): 20.7 µM (inactive)
- GI50 (786-0): 33.8 µM (inactive)
- GI50 (HCC 2998): 36.1 µM (inactive)
- GI50 (NCI-H460): 19.1 µM (inactive)
- GI50 (OVCAR-8): 19.6 µM (inactive)
- GI50 (IGROV-1): 30.7 µM (inactive)
- GI50 (NCI-H226): > 100 µM (inactive)
- GI50 (MDA-N): 29.6 µM (inactive)
- GI50 (OVCAR-4): 31.8 µM (inactive)
- GI50 (SK-MEL-5): 22.6 µM (inactive)
- GI50 (A549): 40.7 µM (inactive)
- GI50 (Malme-3M): 21.6 µM (inactive)
- GI50 (HT-29): 15.4 µM (inactive)
- GI50 (CAKI-1): 23.1 µM (inactive)
- GI50 (CCRF-CEM): 8.34 µM (inactive)
- GI50 (Hs-578T): 34.8 µM (inactive)
- GI50 (LOX IMVI): 23.9 µM (inactive)
- GI50 (MCF7): 19.6 µM (inactive)
- GI50 (T47D): 34.1 µM (inactive)
- GI50 (SN12C): 26.6 µM (inactive)
- GI50 (PC-3): 23.3 µM (inactive)
- GI50 (MDA-MB-231): 41.3 µM (inactive)
- GI50 (ACHN): 23.8 µM (inactive)
- GI50 (SF-539): 33.5 µM (inactive)
- GI50 (MOLT-4): 14.9 µM (inactive)
- GI50 (U-251): 31 µM (inactive)
- GI50 (HOP-62): 21.3 µM (inactive)
- GI50 (SF-295): 31.7 µM (inactive)
- GI50 (NCI-H23): 33.8 µM (inactive)
- GI50 (NCI/ADR-RES): 29.9 µM (inactive)
- GI50 (RXF 393): 20.2 µM (inactive)
- GI50 (UACC-257): 45.8 µM (inactive)
- GI50 (SNB-19): 22 µM (inactive)
- GI50 (TK-10): 55.8 µM (inactive)
- GI50 (OVCAR-5): 51.2 µM (inactive)
- GI50 (EKVX): 24.7 µM (inactive)
- GI50 (SR): 8.04 µM (inactive)
- GI50 (SK-MEL-2): 30.8 µM (inactive)
- GI50 (SF-268): 34.2 µM (inactive)
- GI50 (MDA-MB-435): 29.9 µM (inactive)
- GI50 (COLO 205): 32.4 µM (inactive)
- GI50 (UACC-62): 21.3 µM (inactive)
- GI50 (SNB-75): 62.7 µM (inactive)
- GI50 (BT-549): 35.3 µM (inactive)
- GI50 (OVCAR-3): 20.1 µM (inactive)
- GI50 (DU-145): 37.4 µM (inactive)
- GI50 (K562): 10.6 µM (inactive)
- GI50 (SK-OV-3): 62.2 µM (inactive)
- GI50 (HCT-15): 23 µM
- GI50 (HCT-116): 18.2 µM (inactive)
- GI50 (HOP-92): 16.8 µM (inactive)
- GI50 (UO-31): 61.8 µM (inactive)
- GI50 (RPMI-8226): 21.2 µM (inactive)
- GI50 (SW-620): 17 µM (inactive)
- GI50 (SK-MEL-28): 18.2 µM (inactive)

Structure (SMILES): C=CCC(CNC(=O)OCc1ccccc1)O[Si](C)(C)C(C)(C)C (stereo not given)
- GI50 (A498): 38.8 µM (inactive)
- GI50 (KM12): 34 µM (inactive)
- GI50 (NCI-H522): 24.9 µM (inactive)
- GI50 (786-0): 29.4 µM (inactive)
- GI50 (HCC 2998): 39.5 µM (inactive)
- GI50 (HL-60): 20.1 µM (inactive)
- GI50 (NCI-H460): 25.6 µM (inactive)
- GI50 (OVCAR-8): 45.3 µM (inactive)
- GI50 (IGROV-1): 27.4 µM (inactive)
- GI50 (NCI-H226): 25.9 µM (inactive)
- GI50 (MDA-N): 34.8 µM (inactive)
- GI50 (OVCAR-4): 46.7 µM (inactive)
- GI50 (SK-MEL-5): 16.6 µM (inactive)
- GI50 (A549): 30.1 µM (inactive)
- GI50 (HT-29): 18 µM (inactive)
- GI50 (CAKI-1): 29.4 µM (inactive)
- GI50 (CCRF-CEM): 28.3 µM (inactive)
- GI50 (Hs-578T): 45.2 µM (inactive)
- GI50 (LOX IMVI): 23.4 µM (inactive)
- GI50 (MCF7): 22.3 µM (inactive)
- GI50 (T47D): 22.9 µM (inactive)
- GI50 (SN12C): 31.2 µM (inactive)
- GI50 (PC-3): 30.3 µM (inactive)
- GI50 (MDA-MB-231): 17.3 µM (inactive)
- GI50 (ACHN): 33.6 µM (inactive)
- GI50 (SF-539): 28.5 µM (inactive)
- GI50 (MOLT-4): 19.6 µM (inactive)
- GI50 (U-251): 25.6 µM (inactive)
- GI50 (HOP-62): 38.5 µM (inactive)
- GI50 (SF-295): 35.2 µM (inactive)
- GI50 (M14): 26.4 µM (inactive)
- GI50 (NCI-H23): 55.5 µM (inactive)
- GI50 (NCI/ADR-RES): 36.9 µM (inactive)
- GI50 (RXF 393): 17.3 µM (inactive)
- GI50 (UACC-257): 25.4 µM (inactive)
- GI50 (SNB-19): 40.3 µM (inactive)
- GI50 (TK-10): 74.5 µM (inactive)
- GI50 (OVCAR-5): 26.3 µM (inactive)
- GI50 (EKVX): 25.4 µM (inactive)
- GI50 (SR): 18.5 µM (inactive)
- GI50 (SK-MEL-2): 16.6 µM (inactive)
- GI50 (SF-268): 45.3 µM (inactive)
- GI50 (MDA-MB-435): 38.5 µM (inactive)
- GI50 (COLO 205): 16.6 µM (inactive)
- GI50 (UACC-62): 23.2 µM (inactive)
- GI50 (SNB-75): 59.3 µM (inactive)
- GI50 (BT-549): 55 µM (inactive)
- GI50 (OVCAR-3): 31.6 µM (inactive)
- GI50 (DU-145): 36.5 µM (inactive)
- GI50 (K562): 23.6 µM (inactive)
- GI50 (SK-OV-3): 61.5 µM (inactive)
- GI50 (HCT-15): 35.9 µM
- GI50 (HCT-116): 20.8 µM (inactive)
- GI50 (HOP-92): 26.2 µM (inactive)
- GI50 (UO-31): 22.2 µM (inactive)
- GI50 (RPMI-8226): 20 µM (inactive)
- GI50 (SW-620): 38.1 µM (inactive)
- GI50 (SK-MEL-28): 48 µM (inactive)
